According to ChEMBL document CHEMBL1135518 (J Med Chem, 2002):

Legend:
Rattus norvegicus [1] = experiment: The increase in the extracellular levels of 5-HIAA in the rat ventral hippocampus at a dose of 2.5 mg/kg sc measured by in vivo microdialysis; type: functional; details: route subcutaneous
D(3) dopamine receptor = D(3) dopamine receptor (Homo sapiens, UniProt P35462); experiment: The binding affinity at the Dopamine receptor D3 determined using [3H]spiperone
Rattus norvegicus [2] = experiment: The increase in the extracellular levels of NA in the rat ventral hippocampus at a dose of 5.0 mg/kg sc measured by in vivo microdialysis; type: functional; details: route subcutaneous
[3] = target: T1, 5-hydroxytryptamine receptor 1A (Homo sapiens, UniProt P08908); experiment: The binding affinity at the 5-hydroxytryptamine 1A receptor determined using [3H]5-CT
T1 sequence (P08908 whole entry): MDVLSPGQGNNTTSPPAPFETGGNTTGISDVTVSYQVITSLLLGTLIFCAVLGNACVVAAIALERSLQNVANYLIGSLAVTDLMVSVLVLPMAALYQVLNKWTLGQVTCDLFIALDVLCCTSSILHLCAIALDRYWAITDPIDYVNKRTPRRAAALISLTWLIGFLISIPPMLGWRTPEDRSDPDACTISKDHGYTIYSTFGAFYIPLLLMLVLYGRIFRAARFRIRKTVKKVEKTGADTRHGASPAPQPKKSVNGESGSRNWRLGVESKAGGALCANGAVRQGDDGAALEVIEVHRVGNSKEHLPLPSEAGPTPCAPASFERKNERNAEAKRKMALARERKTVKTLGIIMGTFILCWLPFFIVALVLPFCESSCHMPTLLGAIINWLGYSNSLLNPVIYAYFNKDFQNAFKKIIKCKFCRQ

[4] = target: T2, Adrenergic receptor alpha-2 (Rattus norvegicus, UniProt P22086+P19328+P22909); experiment: The binding affinity at the Alpha-2 adrenergic receptor determined using [3H]RX-821002; type: protein assay
T2 sequence (P22086 whole entry): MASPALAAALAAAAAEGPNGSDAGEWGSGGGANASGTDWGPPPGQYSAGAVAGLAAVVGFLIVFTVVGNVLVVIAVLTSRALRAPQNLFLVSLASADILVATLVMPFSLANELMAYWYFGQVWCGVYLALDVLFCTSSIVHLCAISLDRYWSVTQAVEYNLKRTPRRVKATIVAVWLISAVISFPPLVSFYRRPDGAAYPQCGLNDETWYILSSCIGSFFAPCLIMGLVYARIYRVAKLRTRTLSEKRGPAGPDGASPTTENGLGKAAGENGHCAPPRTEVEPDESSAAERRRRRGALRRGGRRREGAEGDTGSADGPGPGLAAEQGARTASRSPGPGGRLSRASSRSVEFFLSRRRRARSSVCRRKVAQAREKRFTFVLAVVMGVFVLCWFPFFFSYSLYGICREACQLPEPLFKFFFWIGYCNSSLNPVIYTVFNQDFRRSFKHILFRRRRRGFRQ
T2 sequence (P19328 whole entry): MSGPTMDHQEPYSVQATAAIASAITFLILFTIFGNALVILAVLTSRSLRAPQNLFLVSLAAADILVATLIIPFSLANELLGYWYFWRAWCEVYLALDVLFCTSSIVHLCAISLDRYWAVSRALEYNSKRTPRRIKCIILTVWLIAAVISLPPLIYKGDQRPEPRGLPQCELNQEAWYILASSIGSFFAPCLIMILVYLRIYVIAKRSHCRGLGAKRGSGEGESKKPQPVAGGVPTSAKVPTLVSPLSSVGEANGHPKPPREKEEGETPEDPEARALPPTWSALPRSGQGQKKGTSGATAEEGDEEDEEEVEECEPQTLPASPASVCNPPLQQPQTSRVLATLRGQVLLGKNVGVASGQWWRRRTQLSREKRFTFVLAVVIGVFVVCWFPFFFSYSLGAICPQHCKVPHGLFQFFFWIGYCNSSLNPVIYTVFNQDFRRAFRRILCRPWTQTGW
T2 sequence (P22909 whole entry): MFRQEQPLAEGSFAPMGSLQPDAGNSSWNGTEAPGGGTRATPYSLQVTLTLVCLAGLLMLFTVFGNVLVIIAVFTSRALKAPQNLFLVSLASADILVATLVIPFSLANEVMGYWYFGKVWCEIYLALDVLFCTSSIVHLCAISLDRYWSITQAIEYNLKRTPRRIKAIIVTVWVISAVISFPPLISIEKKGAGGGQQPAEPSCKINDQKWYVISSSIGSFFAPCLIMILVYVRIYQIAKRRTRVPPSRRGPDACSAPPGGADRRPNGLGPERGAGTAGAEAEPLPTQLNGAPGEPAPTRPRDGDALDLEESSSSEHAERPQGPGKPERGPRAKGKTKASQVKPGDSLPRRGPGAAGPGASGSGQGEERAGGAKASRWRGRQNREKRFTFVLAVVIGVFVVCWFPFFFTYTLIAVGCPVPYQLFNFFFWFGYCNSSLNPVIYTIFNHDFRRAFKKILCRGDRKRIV

[5] = target: T3, 5-hydroxytryptamine receptor 2C (Rattus norvegicus, UniProt P08909); experiment: The binding affinity at 5-hydroxytryptamine 2C receptor was determined using [3H]mesulergine
T3 sequence (P08909 whole entry): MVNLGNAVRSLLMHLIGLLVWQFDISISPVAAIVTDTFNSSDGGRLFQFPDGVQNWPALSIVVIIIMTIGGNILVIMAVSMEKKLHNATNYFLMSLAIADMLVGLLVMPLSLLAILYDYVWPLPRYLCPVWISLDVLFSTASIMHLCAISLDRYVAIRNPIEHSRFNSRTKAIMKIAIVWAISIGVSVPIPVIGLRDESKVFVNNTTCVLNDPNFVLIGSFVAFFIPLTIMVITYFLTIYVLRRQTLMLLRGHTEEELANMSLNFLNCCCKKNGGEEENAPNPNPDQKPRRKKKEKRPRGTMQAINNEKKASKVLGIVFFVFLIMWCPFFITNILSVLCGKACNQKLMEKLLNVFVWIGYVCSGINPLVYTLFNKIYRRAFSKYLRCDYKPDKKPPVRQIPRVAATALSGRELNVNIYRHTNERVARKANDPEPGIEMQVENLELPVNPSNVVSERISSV

[6] = target: Norepinephrine transporter (Rattus norvegicus, UniProt Q9WTR4); experiment: The binding affinity at the Norepinephrine transporter reuptake sites determined using competition binding assay
Rattus norvegicus [7] = experiment: The increase in the extracellular levels of 5-HT in the rat ventral hippocampus at a dose of 2.5 mg/kg sc measured by in vivo microdialysis; type: functional; details: route subcutaneous
Rattus norvegicus [8] = experiment: The increase in the extracellular levels of DOPAC in the rat ventral hippocampus at a dose of 2.5 mg/kg sc measured by in vivo microdialysis; type: functional; details: route subcutaneous
D(2) dopamine receptor = D(2) dopamine receptor (Rattus norvegicus, UniProt P61169); experiment: The binding affinity at the Dopamine receptor D2 determined using [3H]spiperone
[9] = The binding affinity at the Histamine H1 receptor determined using [3H]pyrilamine; set-up: species or system Cavia porcellus
Rattus norvegicus [10] = experiment: The increase in the extracellular levels of 5-HT in the rat ventral hippocampus at a dose of 5.0 mg/kg sc measured by in vivo microdialysis; type: functional; details: route subcutaneous
Rattus norvegicus [11] = experiment: The increase in the extracellular levels of NA in the rat ventral hippocampus at a dose of 2.5 mg/kg sc measured by in vivo microdialysis; type: functional; details: route subcutaneous

Sequence of D(2) dopamine receptor (P61169 whole entry): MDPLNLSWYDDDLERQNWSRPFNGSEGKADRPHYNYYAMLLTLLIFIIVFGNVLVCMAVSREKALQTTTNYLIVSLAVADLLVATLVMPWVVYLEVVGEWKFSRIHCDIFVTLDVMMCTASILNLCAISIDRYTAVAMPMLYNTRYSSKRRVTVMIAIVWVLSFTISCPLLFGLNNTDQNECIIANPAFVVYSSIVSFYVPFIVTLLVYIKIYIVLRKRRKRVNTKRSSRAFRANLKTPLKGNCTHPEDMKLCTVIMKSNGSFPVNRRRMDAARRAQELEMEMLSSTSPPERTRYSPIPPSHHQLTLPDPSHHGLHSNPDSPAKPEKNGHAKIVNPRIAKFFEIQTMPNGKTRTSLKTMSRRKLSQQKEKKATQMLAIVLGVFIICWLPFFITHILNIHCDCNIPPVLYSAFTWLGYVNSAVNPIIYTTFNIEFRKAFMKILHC
Sequence of Norepinephrine transporter (Q9WTR4 whole entry): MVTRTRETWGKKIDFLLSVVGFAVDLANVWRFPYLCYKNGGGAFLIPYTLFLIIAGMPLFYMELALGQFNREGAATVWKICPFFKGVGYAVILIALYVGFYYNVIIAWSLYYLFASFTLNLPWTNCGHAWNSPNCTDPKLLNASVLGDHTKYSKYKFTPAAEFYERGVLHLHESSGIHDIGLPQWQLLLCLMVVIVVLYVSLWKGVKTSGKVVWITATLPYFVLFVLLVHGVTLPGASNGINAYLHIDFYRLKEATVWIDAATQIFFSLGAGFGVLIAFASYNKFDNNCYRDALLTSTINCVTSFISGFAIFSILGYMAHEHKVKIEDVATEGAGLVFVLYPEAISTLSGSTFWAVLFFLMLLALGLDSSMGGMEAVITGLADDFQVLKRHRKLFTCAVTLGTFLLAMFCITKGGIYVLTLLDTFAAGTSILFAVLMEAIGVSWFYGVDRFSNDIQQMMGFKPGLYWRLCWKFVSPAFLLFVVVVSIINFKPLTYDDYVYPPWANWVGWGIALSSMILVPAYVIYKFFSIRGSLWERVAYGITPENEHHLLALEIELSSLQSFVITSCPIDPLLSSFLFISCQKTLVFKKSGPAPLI
Sequence of D(3) dopamine receptor (P35462 whole entry): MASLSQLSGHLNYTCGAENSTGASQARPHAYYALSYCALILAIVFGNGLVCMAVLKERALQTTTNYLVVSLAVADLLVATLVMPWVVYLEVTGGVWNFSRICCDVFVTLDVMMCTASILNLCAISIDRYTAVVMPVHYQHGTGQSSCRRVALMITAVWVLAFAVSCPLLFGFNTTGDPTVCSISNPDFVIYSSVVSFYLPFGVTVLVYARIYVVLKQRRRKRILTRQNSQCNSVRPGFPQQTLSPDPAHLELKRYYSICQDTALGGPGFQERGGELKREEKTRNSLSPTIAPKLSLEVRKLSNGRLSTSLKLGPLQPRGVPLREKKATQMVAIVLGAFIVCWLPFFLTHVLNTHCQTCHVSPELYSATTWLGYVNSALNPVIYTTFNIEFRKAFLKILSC

Row | SMILES | Increase (Rattus norvegicus [1]) | Ki (D(3) dopamine receptor) | Increase (Rattus norvegicus [2]) | Ki [3] | Ki [4] | Ki [5] | IC50 [6] | Increase (Rattus norvegicus [7]) | Increase (Rattus norvegicus [8]) | Ki (D(2) dopamine receptor) | Ki [9] | Increase (Rattus norvegicus [10]) | Increase (Rattus norvegicus [11])
1 | COc1cccc2c1N1CCN(C)C[C@H]1c1ccccc1C2 | 120% | 100 nM | 200% | 255 nM | 37 nM | 0.39 nM | 2860 nM | 200% | 160% | 20 nM | 14 nM | – | –
2 | COc1cccc2c1N1CCN(C)CC1c1ccccc1C2 (racemic) | – | 260 nM | 200% | 345 nM | – | 0.21 nM | 1780 nM | – | – | 28 nM | – | 200% | –
3 | COc1cccc2c1N1CCN(C)C[C@@H]1c1ccccc1C2 | 120% | 3570 nM | – | 800 nM | 73 nM | 0.16 nM | 1240 nM | 200% | 130% | 460 nM | 13 nM | – | 200%
